According to patent publication US20150283270A1, “MODELING ANTI-LEUKEMIC THERAPY BY PATIENT DERIVED AML XENOGRAFTS WITH DISTINCT PHENOTYPES/GENOTYPES” (Crown Bioscience Inc., priority 2014, published 2015):
“Also recorded” adds a separate entry of the source.

Tested on: AM7577 leukemic cells (hCD45+)
Assay: Evaluation of anti-leukemia activity of a therapeutic in AM7577-mice (AML patient derived xenograft)
Assay type: in vivo, NOD/SCID mice
Conditions: for Inhibition of leukemia in blood: FIG. 4 legend; for Leukemic load in peripheral blood (hCD45+): 5-day-on/2-day-off, starting 15 days post-engraftment
Description: Animal experiments were conducted at Crown Bioscience's laboratory, China. The transplantation recipient NOD/SCID mice were purchased from Beijing HFK Bioscience at between 3-4 weeks of age. The Institutional Animal Care and Use Committee (IACUC) of Crown Bioscience approved animal study protocols. All procedures were under sterile conditions at Crown Bioscience's SPF facility and conducted in strict accordance with the Guide for the Care and Use of Laboratory Animals of the National Institutes of Health. Ficoll® column isolated MNCs were injected into the tail-vein of 4-week old, sub lethally irradiated NOD/SCID mice ([…]), followed by weekly monitoring for peripheral appearance of leukemic cells (CD45^+) via retro-orbital bleeding and flow analysis. Briefly, ˜50 μL blood was collected into anticoagulative tubes (BD 365974, Becton Dickinson and Co., Franklin Lakes, N.J.). After lysis of red blood cells the cells were stained with 20 μL mouse anti-human CD45 antibody (Biolegend, CA) and incubated on ice for 30 minutes in the dark followed by washing with cold PBS. The cells were resuspended in150 μL PBS and subjected to FACS analysis.
Fifteen days post-engraftment, mice were administered different doses of cytarabine (AraC). Mouse blood was collected by retro-orbital bleed and human CD45^+ cells were quantified weekly by flow cytometry. Body weight and clinical signs were also monitored twice weekly. When mice became morbid due to full-blown leukemia, the animals were sacrificed, followed by gross and microscopic examinations. Major relevant organs (bone marrow, spleen, blood, liver, lymph nodes, etc.) were examined and harvested for further analysis, including IHC (method described previously, Yang, M. et al., Int J Cancer. 2012; Sep. 5. doi: 10.1002/ijc.27813) and immunological phenotyping of the leukemia cells by FACS.
Cytarabine (AraC) is the current standard chemotherapy agent for induction therapy of AML, including AML-M5. We tested AraC anti-leukemic activity against AM7577, by subjecting AM7577-mice to a 5-day-on/2-day-off Ara-C dosing regimen, starting 15 days post-engraftment.
We subsequently explored whether AraC treatment actually cured the disease by withdrawing treatment. The result was rapid relapse just a few days post-treatment withdrawal (FIG. 3A). This observation can potentially be interpreted as AraC has only affected leukemic blasts, but has no affect on LICs.

Compound	Inhibition of leukemia in blood	Leukemic load in peripheral blood (hCD45+) (3 mg/kg)	Leukemic load in peripheral blood (hCD45+) (10 mg/kg)	Relapse after drug withdrawal (AM7577-mice, after treatment withdrawal)	Treatment & response (AML mouse model AM7577)	Leukemic blasts in peripheral blood on resuming treatment after withdrawal (second dosing period after relapse)	Survival of AM7577-mice (under treatment vs vehicle group)
CC(C)(C)c1cc(NC(=O)Nc2ccc(-c3cn4c(n3)sc3cc(OCCN5CCOCC5)ccc34)cc2)no1 [AC220]	Inhibition	–	–	–	–	–	–
Nc1ccn([C@@H]2O[C@H](CO)[C@@H](O)[C@@H]2O)c(=O)n1 [AraC, Cytarabine]	–	no detectable leukemic load	no detectable leukemic load	rapidly relapsed; also recorded: rapid relapse	complete remission	effectively re-suppressed	extended life; also recorded: extended AM7577-mice survival times
CNC(=O)c1cc(Oc2ccc(NC(=O)Nc3ccc(Cl)c(C(F)(F)F)c3)cc2)ccn1 [sorafenib]	Inhibition	–	–	–	–	–	–
